Earlier results, collected in publication PMC3775475 (European journal of medicinal chemistry, 2013).

Biological target: kappa-OR (UniProt P41145)
Sequence (P41145 whole entry): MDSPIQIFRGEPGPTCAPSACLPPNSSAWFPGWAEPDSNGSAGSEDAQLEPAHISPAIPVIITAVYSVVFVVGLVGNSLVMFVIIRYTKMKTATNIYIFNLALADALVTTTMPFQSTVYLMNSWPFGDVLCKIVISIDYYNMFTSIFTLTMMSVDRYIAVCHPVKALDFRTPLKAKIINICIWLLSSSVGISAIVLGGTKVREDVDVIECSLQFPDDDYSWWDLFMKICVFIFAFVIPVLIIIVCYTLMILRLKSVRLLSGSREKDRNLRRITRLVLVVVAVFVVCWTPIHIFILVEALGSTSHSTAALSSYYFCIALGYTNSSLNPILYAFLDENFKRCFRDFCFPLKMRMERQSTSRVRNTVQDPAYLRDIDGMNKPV

In the case of `CC[C@@H](C)[C@@H](NC(=O)[C@@H](Cc1ccccc1)NC(=O)[C@H](N)Cc1ccccc1)C(=O)N[C@H](CCCNC(=N)N)C(N)=O` [compound 4], the Ki is listed as 2.4 nM.

In the case of “ff(D-nle)r-NH2 (R1 f, R2 f, R3 nle, R4 r) [compound 1]”, the Ki is given as 1.2 nM.
